Test results published in patent publication US10174339B2 (priority 2011, dated 2019).
Values joined by “and” are separate entries in the source; they are usually repeats but may differ in a detail not shown here. Equal values may be shown once. Read-outs that look alike come from different tables or passages of the source. Ends that are not written are not given here.

Tests used:
C. neoformans (C2067) = assay type: cell-based, Cryptococcus neoformans; details: 6.5 ppm
C. gattii = assay type: cell-based, Cryptococcus gattii
[1] = system: Colletotrichum graminicola; assay: Transgenic corn leaf sheath bioassay, lesion area, C. graminicola; details: in vivo
Fusarium verticilloides = assay type: cell-based; details: 3.25 ppm
[2] = system: Cryptococcus neoformans (C1065); assay type: cell-based; details: 13 ppm
[3] = system: Colletotrichum graminicola; assay type: cell-based; details: 13 ppm
Fusarium graminearum [4] = assay type: cell-based; details: for inhibition of growth of F. graminearum, more than NaD1: 0.825 ppm; for IC50: read-out: IC50 against Fusarium graminearum (Fgr)
[5] = system: Colletotrichum graminicola; assay type: cell-based
Aspergillus niger = assay type: cell-based
[6] = system: Asian soybean rust (Phakopsora pachirhizi); assay type: cell-based; details: 10 ppm
Fusarium graminearum [7] = assay type: cell-based
Fusarium graminearum [8] = details: in vivo

In the case of “HXP4: NaD2 Loop 1B (HRFKGP) in NaD1 backbone, SEQ ID NO:39 (RECKTESHRFKGPCITKPPCRKACISEKFTDGHCSKILRRCLCTKPC; ends and bridges not checked; cysteine pairing not given here)”, the “inhibition of growth of C. neoformans (C2067)” value (C. neoformans (C2067)) is reported as “more than 80%”, the “inhibition of growth of C. gatti, more than NaD1” value (C. gattii; 6.5 ppm) is reported as 38% and the “inhibition of growth of C. gatti, more than NaD1” value (C. gattii; 13 ppm) is reported as 10%. The “Percent inhibition relative of empty vector control (reduction in lesion area), Cgr” value [1] was 26%, the “inhibition of growth of F. verticilloides, more than NaD1” value (Fusarium verticilloides) was 40.9% and the “activity as percent of the activity of NaD1, C. neoformans (C1065)” value [2] was “more than 596%”. For the same molecule, the “inhibition of growth of Cryptococcus neoformans (C1065)” value [2] was “completely inhibited”, the “inhibition of growth of C. graminicola, more than NaD1” value [3] was 61.3% and the “inhibition of growth of F. graminearum, more than NaD1” value (Fusarium graminearum [4]) was 41.7%. The “synergy with protease inhibitors against Colletotrichum graminicola” value [5] was “synergistic with protease inhibitors”, the “activity expressed as percent of NaD1, A. niger” value (Aspergillus niger; 13 ppm) was “greater than 112%” and the “inhibition of growth of A. niger, more than NaD1” value (“inhibition of growth of A. niger” below) (Aspergillus niger; 13 ppm) was 20.6%. For the same molecule, the “inhibition of growth of A. niger” value (Aspergillus niger; 26 ppm) was “at least 10%”, the “inhibition of growth of A. niger” value (Aspergillus niger; 53 ppm) was “at least 10%” and the “inhibition of appresorium formation, more than NaD1” value ([6]; 24 hours) was 65%. The “inhibition of germination of Asian soybean rust, more than NaD1” value ([6]; 24 hours) was 62%, the “inhibition of formation of post-appresorium structures, more than NaD1” value ([6]; 48 hours) was 59% and the “synergistic effect with protease inhibitors against Fusarium graminearum” value (Fusarium graminearum [7]) was “greater synergistic effect with protease inhibitors than NaD1”.

With “HXP35: PSD1 Loop 1B (DTYRGV) in NaD1 backbone, SEQ ID NO:41 (RECKTESDTYRGVCITKPPCRKACISEKFTDGHCSKILRRCLCTKPC; ends and bridges not checked; cysteine pairing not given here)” the “inhibition of growth of F. verticilloides, more than NaD1” value (Fusarium verticilloides) was 5.1%, the “inhibition of growth of C. graminicola, more than NaD1” value [3] was 83.2% and the “inhibition of growth of F. graminearum, more than NaD1” value (Fusarium graminearum [4]) was 34.5%.

“TPP3: Class II solanaceous defensin (Solanum lycopersicum), SEQ ID NO:5, parent protein of HXP107 (QQICKAPSQTFPGLCFMDSSCRKYCIKEKFTGGHCSKLQRKCLCTKPC; Synthetic construct Amino acid sequence of portion of TPP3 (Solanum lycopersicum) containing Loop 1B) [reference compound]” was tested, and the IC50 (Fusarium graminearum [4]) was 200 nM.

“HXP34: Zea2 Loop 1B (QHHSFP) in NaD1 backbone, SEQ ID NO:40 (RECKTESQHHSFPCITKPPCRKACISEKFTDGHCSKILRRCLCTKPC; ends and bridges not checked; cysteine pairing not given here)” was tested, and the “inhibition of growth of F. verticilloides, more than NaD1” value (Fusarium verticilloides) was 29.4%, the “inhibition of growth of C. graminicola, more than NaD1” value [3] was 21.8% and the “inhibition of growth of F. graminearum, more than NaD1” value (Fusarium graminearum [4]) was 14.6%.

“HXP107: NaD2 Loop 1B in TPP3 backbone, SEQ ID NO:85 (QQICKAPSHRFKGPCFMDSSCRKYCIKEKFTGGHCSKLQRKCLCTKPC; Synthetic construct TPP3 backbone with NaD2 Loop 1B)” showed an IC50 (Fusarium graminearum [4]) of 500 nM.

B1: CI-1B: barley type-I inhibitor, recombinant (protein)
chain: MRSMEGSVPKYPEPTEGSIGASGAKRSWPEVVGMSAEKAKEIILRDKPDAQIEVIPVDAMVPLDFNPNRIFILVAVARTPTVG
modifications: Synthetic construct Amino acid sequence of CI-1B
B1 was tested, and the “Ee, expected effect from the additive response (Limpel's formula)” value (Fusarium graminearum [7]) was 12.1 percent inhibition and 17.1 percent inhibition.

B2: NaPin1A: Nicotiana alata type I proteinase inhibitor (protein)
chain: QSGCPGVTKERWPELLGTPAKFAMQIIQKENPKLTNVQTILNGRPVTEDLRCNRVRLFVNVLDFVVQTPQVG
modifications: Synthetic construct Amino acid sequence of NaPin1A
In the case of B2, the “Ee, expected effect from the additive response (Limpel's formula)” value [5] is reported as 11.8 percent inhibition and the “Io, percent inhibition observed” value [5] is reported as 69.3 percent inhibition.

B3: HXP4 + HvCPI6: barley cystatin HvCPI6 and modified defensin HXP4 co-expressed from one construct in corn, SEQ ID NO:83 (protein)
chain: MANKHLSLSLFLVLLGLSASLASGATSALGRRGVLLGGWSPVKDVNDPHVQELGGWAVAQHASLAKDGLLFRRVTRGEQQVVSGMNYRLFVVAADGSGKRVTYLAQIYEHWSRTRKLTSFKPAAGGEEKKNRECKTESNTFPGICITKPPCRKACISEKFTDGHCSKILRRCLCTKPCVFDEKMTKTGAEILAEEAKTLAAALLEEEIMDN
modifications: Synthetic construct Amino acid sequence of HvCPI6-L-HXP4-CTPP
B3 was tested, and the “Percent inhibition relative of empty vector control (reduction in lesion area), Fgr” value (Fusarium graminearum [8]) was 45%.
